Patent US7414107B2, “Pharmacologically active peptide conjugates having a reduced tendency towards enzymatic hydrolysis” (priority 1998, dated 2008)
Where a SMILES comes first, the peptide text is derived from it. Where no end group is shown, it is not given here. [ ]: non-standard residue; d: D form. Dap = NC[C@H](N)C(=O)O

Columns and labels:
vas deferens = conditions: read-out: EC50 value; half maximal inhibition of electrically-induced contraction, mouse vas deferens
Protocol: (§1) In short: vasa deferentia were isolated from male mice weighing 20-30 g (Mellegaard breeding, DK) and suspended through two electrodes in 10 ml baths at resting tension of 1 g. […] The tissues were stimulated electrically (70 V, 1 ms duration; 0.1 Hz) and contractions were recorded isometrically on a chart recorder. After equilibration of the tissue for at least 20 min, drugs were added in the bath and the maximum effects were measured.
(§2) Prior to addition of the plasma sample, a standard dose-response curve was generated in each preparation in order to express the inhibitory activity as concentration of each test substance. Thus, the calculated concentration is a reflection of inhibitory activity in the vas deferens bioassay preparation.
(§3) Where initial=initial […] contraction force prior to addition of test substance; conc=concentration of test substance; EC50=concentration of test substance that […] produced half maximal inhibition of electrically-induced contraction; background=contraction force during maximal relaxation.

carboxypeptidase A = target: T1, carboxypeptidase A (Bos taurus, UniProt P00730); test: Hydrolysis kinetics in carboxypeptidase A solution; format: in vitro ADME, bovine; conditions: 50 mM phosphate buffer pH 7.4, 37° C., carboxypeptidase A 1 U/ml
T1 construct: purchased Sigma, UK type I (catalogue number not given); host or cells: bovine pancreas
T1 sequence (P00730 111-419): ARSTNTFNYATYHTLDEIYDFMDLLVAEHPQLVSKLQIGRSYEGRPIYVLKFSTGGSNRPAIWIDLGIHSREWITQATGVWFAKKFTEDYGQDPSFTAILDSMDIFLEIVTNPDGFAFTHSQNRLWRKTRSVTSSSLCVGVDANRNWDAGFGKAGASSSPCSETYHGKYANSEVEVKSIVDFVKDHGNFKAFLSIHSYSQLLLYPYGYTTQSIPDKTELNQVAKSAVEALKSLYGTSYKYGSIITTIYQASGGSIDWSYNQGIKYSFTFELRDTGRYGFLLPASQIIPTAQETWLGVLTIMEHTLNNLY
In short: (§4)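 Peptide conjugate or native peptide at ~0.1 mg/ml final (10^−5-10^−4M) incubated at 37° C in 50 mM phosphate pH 7.4 with leucine aminopeptidase (25 U/ml) or carboxypeptidase A (1 or 25 U/ml). Timed samples quenched with TFA/acetonitrile and quantified by RP-HPLC at 215 nm. t1/2 = ln2/kobs from first-order log plots.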

[1] = Stability in mouse plasma at 37° C. (vas deferens bioassay readout)
Source text: as §2, §3
All enkephalin analogues were dissolved in Krebs buffer in a concentration of 1 mM. Sixty-six μl of each test substance solution (66 nmol enkephalin analog) was incubated with 600 μl plasma at 37° C. […] Functional activity of each test substance in plasma was expressed as the concentration of the test substance that elicited the same inhibition of electrically-induced contraction in the vas deferens bioassay. T1/2 was calculated by fitting the time-concentration data to the equation: conc(t)=conc(0)·e^(−ln2/T1/2)·t where conc(0)=concentration at t=0.

leucine aminopeptidase = target: T2, leucine aminopeptidase (Sus scrofa, UniProt P28839); test: Hydrolysis kinetics in leucine aminopeptidase solution; format: in vitro ADME, porcine; conditions: 50 mM phosphate buffer pH 7.4, 37° C., leucine aminopeptidase 25 U/ml; for half-life: pig
T2 construct: purchased Sigma, UK type III-CP (catalogue number not given); host or cells: porcine kidney
T2 sequence (P28839 1-519): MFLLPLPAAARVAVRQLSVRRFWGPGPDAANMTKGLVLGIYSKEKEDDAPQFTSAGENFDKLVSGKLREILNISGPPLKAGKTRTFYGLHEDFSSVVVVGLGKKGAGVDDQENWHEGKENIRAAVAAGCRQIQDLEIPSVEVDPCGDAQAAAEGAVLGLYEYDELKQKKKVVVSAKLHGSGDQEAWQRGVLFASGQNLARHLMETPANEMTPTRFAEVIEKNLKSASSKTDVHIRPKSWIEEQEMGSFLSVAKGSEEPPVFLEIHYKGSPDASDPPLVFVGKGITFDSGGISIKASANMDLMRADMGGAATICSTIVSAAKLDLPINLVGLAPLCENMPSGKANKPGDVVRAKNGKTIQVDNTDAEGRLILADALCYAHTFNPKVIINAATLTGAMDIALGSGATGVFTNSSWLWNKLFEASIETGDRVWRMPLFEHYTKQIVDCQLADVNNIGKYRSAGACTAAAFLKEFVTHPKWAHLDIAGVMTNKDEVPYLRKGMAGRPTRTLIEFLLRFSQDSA
In short: as §4

[2] = Bioavailability in mice: functional activity in serum after p.o. or i.v. dosing (vas deferens bioassay)
Protocol: Blood samples were centrifuged immediately (3000 g, 4° C.) and serum was isolated and used for activity determination.
as §1

guinea pig illeum = conditions: agonist, induced contraction, illeum not electrically stimulated
Protocol: Following application of the compounds the induced contraction was measured.

PTH (1-34)-antibody = conditions: EIAS(h)-6101 from Peninsula Laboratories; cited from earlier work
osteoblast = test: Osteoblast retraction assay; format: cell-based, mice
Protocol: Retraction assays were performed with osteoblast prepared from calvaria of 1-day old mice according to published protocols (Miller et al., 1976, Science 192:1340-1343). In brief, osteoblasts were seeded in serum-free minimal essential medium-α (αMEM) at a density of 3000 cells per cm^2 into 96-well tissue culture plates coated with 50 μg/ml of type I collagen in phosphate-buffered saline containing 0.1% bovine serum albumin (PBS). One day after plating, PTH compounds were added to a final concentration of 10 nM and incubation was carried out for 1 h. Cells were then fixed and stained with toluidine blue, and the number of retracted cells was counted by visual inspection.

Compound: H-YGGFLKEEEEK-OH [Leu-Enkephalin-(Lys-Glu4-Lys)-OH, H-Tyr-Gly-Gly-Phe-Leu-Lys-Glu-Glu-Glu-Glu-Lys--OH]
- EC50 (vas deferens): 357 nM
- half-life (carboxypeptidase A): 1160 min
- pseudo first-order rate constant for the degradation (carboxypeptidase A): 0.0006 min⁻¹
- half-life at 99 µM ([1]; mouse plasma): 84.5 min
- pseudo first-order rate constant for the degradation (leucine aminopeptidase): 0.065 min⁻¹
- half-life (leucine aminopeptidase): 11 min

Compound: CC(C)C[C@H](NC(=O)[C@H](Cc1ccccc1)NC(=O)CNC(=O)CNC(=O)[C@@H](N)Cc1ccc(O)cc1)C(=O)N[C@@H](CN)C(=O)N[C@@H](CN)C(=O)N[C@@H](CN)C(=O)N[C@@H](CN)C(=O)N[C@@H](CN)C(=O)N[C@@H](CN)C(=O)O [Leu-Enkephalin-(Dpr)6-OH, H-Tyr-Gly-Gly-Phe-Leu-(Dpr)6-OH] (H-YGGFL[Dap][Dap][Dap][Dap][Dap][Dap]-OH)
- EC50 (vas deferens): 200 nM
- half-life (carboxypeptidase A): 29 min
- pseudo first-order rate constant for the degradation (carboxypeptidase A): 0.024 min⁻¹
- half-life at 99 µM ([1]; plasma): 19.8 min
- pseudo first-order rate constant for the degradation (leucine aminopeptidase): 0.17 min⁻¹
- half-life (leucine aminopeptidase): 4.2 min

Compound: YGGFLKKKKKK [Leu-Enkephalin-(Lys)6-OH, H-Tyr-Gly-Gly-Phe-Leu-Lys6-OH]
- EC50 (vas deferens): 160 nM
- pseudo first-order rate constant for the degradation (carboxypeptidase A): 0.0007 min⁻¹
- half-life (carboxypeptidase A; cattle, carboxypeptidase A solution (1 U/ml) in phosphate buffer): 990 min
- half-life at 99 µM ([1]; plasma): 18.7 min
- Functional activity in serum ([2]; 50 mg/kg i.v., 5 min): 15.9 ± 2.4 µM
- Functional activity in serum ([2]; 50 mg/kg i.v., 15 min): 8.5 ± 1.2 µM
- Functional activity in serum ([2]; 50 mg/kg i.v., 30 min): 6 ± 0.95 µM
- Functional activity in serum ([2]; 50 mg/kg i.v., 60 min): 1.6 ± 0.34 µM
- Functional activity in serum ([2]; 50 mg/kg i.v., 180 min): 0.44 ± 0.11 µM
- Functional activity in serum ([2]; 50 mg/kg i.v., 240 min): 2.5 ± 0.32 µM
- Functional activity in serum ([2]; 50 mg/kg i.v., 370 min): 31.2 ± 8.62 µM
- Functional activity in serum ([2]; 50 mg/kg i.v., 720 min): <Detection Limit
- Functional activity in serum ([2]; 50 mg/kg i.v., 1080 min): <Detection Limit
- Functional activity in serum ([2]; 50 mg/kg i.v., 1440 min): <Detection Limit
- time at which activity in serum reached a maximum ([2]; 50 mg/kg p.o.): 90 to 240 min
- Functional activity in serum ([2]; 50 mg/kg p.o., 0 min): 0 µM
- Functional activity in serum ([2]; 50 mg/kg p.o., 15 min): <Detection Limit
- Functional activity in serum ([2]; 50 mg/kg p.o., 30 min): 3 ± 0.8 µM
- Functional activity in serum ([2]; 50 mg/kg p.o., 60 min): 6 ± 1.3 µM
- Functional activity in serum ([2]; 50 mg/kg p.o., 90 min): 10.9 ± 3.8 µM
- Functional activity in serum ([2]; 50 mg/kg p.o., 240 min): 10.7 ± 0.23 µM
- Functional activity in serum ([2]; 50 mg/kg p.o., 480 min): 5 ± 0.58 µM
- Functional activity in serum ([2]; 50 mg/kg p.o., 960 min): 2.8 ± 0.78 µM
- Functional activity in serum ([2]; 50 mg/kg p.o., 1380 min): <Detection Limit
- pseudo first-order rate constant for the degradation (leucine aminopeptidase): 0.0097 min⁻¹
- half-life (leucine aminopeptidase): 72 min

Compound: H-KKKKKKRPKPQQFFGLM-NH2 [(Lys)6-Substance P-NH2, H-(Lys)6 Arg-Pro-Lys-Pro-Gln-Gln-Phe-Phe-Gly-Leu -Met-NH2]
- EC50 (guinea pig illeum): 5 nM
- pseudo first-order rate constant for the degradation (leucine aminopeptidase): 0.002 min⁻¹
- half-life (leucine aminopeptidase): 347 min

Compound: YGGFLEEEEEE [Leu-Enkephalin-(Glu)6-OH, H-Tyr-Gly-Gly-Phe-Leu-Glu6-OH]
- solubility (Solubility (remark)): very low solubility
- EC50 (vas deferens): 140 nM

Compound: CSCC[C@H](NC(=O)[C@H](CC(C)C)NC(=O)CNC(=O)[C@H](Cc1ccccc1)NC(=O)[C@H](Cc1ccccc1)NC(=O)[C@H](CCC(N)=O)NC(=O)[C@H](CCC(N)=O)NC(=O)[C@@H]1CCCN1C(=O)[C@H](CCCCN)NC(=O)[C@@H]1CCCN1C(=O)[C@@H](N)CCCNC(=N)N)C(N)=O [Substance P-NH2, H-Arg-Pro-Lys-Pro-Gln-Gln-Phe-Phe-Gly-Leu-Met-NH2, reference compound]
- EC50 (guinea pig illeum): 40 nM
- half-life (carboxypeptidase A): 35 min
- pseudo first-order rate constant for the degradation (carboxypeptidase A): 0.02 min⁻¹
- pseudo first-order rate constant for the degradation (leucine aminopeptidase): 0.045 min⁻¹
- half-life (leucine aminopeptidase): 16 min

Compound: CC[C@H](C)[C@H](NC(=O)[C@H](CCC(=O)O)NC(=O)[C@H](CO)NC(=O)[C@@H](NC(=O)[C@@H](N)CO)C(C)C)C(=O)N[C@@H](CCC(N)=O)C(=O)N[C@@H](CC(C)C)C(=O)N[C@@H](CCSC)C(=O)N[C@@H](Cc1c[nH]cn1)C(=O)N[C@@H](CC(N)=O)C(=O)N[C@@H](CC(C)C)C(=O)NCC(=O)N[C@@H](CCCCN)C(=O)N[C@@H](Cc1c[nH]cn1)C(=O)N[C@@H](CC(C)C)C(=O)N[C@@H](CC(N)=O)C(=O)N[C@@H](CO)C(=O)N[C@@H](CCSC)C(=O)N[C@@H](CCC(=O)O)C(=O)N[C@@H](CCCNC(=N)N)C(=O)N[C@H](C(=O)N[C@@H](CCC(=O)O)C(=O)N[C@@H](Cc1c[nH]c2ccccc12)C(=O)N[C@@H](CC(C)C)C(=O)N[C@@H](CCCNC(=N)N)C(=O)N[C@@H](CCCCN)C(=O)N[C@@H](CCCCN)C(=O)N[C@@H](CC(C)C)C(=O)N[C@@H](CCC(N)=O)C(=O)N[C@@H](CC(=O)O)C(=O)N[C@H](C(=O)N[C@@H](Cc1c[nH]cn1)C(=O)N[C@@H](CC(N)=O)C(=O)N[C@@H](Cc1ccccc1)C(=O)O)C(C)C)C(C)C [PTH(1-34)(Human)-OH, H-Ser-Val-Ser-Glu-Ile-Gln-Leu-Met-His-Asn-Leu-Gly-Lys -His-Leu-Asn-Ser-Met-Glu-Arg-Val-Glu-Trp-Leu-Arg-Lys-Lys-Leu-Gln-Asp-Val-His -Asn-Phe-OH, reference compound]
- half-life (carboxypeptidase A): 0.13 min
- pseudo first-order rate constant for the degradation (carboxypeptidase A): 5.2 min⁻¹
- Specificity of the assay (PTH (1-34)-antibody): 100%
- Retraction assay % Retracted cells (osteoblast; 10 nM, 1 h, mouse calvaria osteoblasts): 58.2%
- activity relative to native, human parathyroid hormone (osteoblast; Osteoblast retraction assay): approximately 89%
- pseudo first-order rate constant for the degradation (leucine aminopeptidase): 0.0021 min⁻¹
- half-life (leucine aminopeptidase): 330 min
